Assay results published in publication PMC8482815, “Targeting Host Glycolysis as a Strategy for Antimalarial Development” (Frontiers in Cellular and Infection Microbiology, 2021).
Where “and” joins values, the source holds several entries; their conditions need not be identical. Equal values may be shown once.

System: human erythrocytes
Assay: Untargeted metabolomics and 13C-glucose tracing of enolase inhibitor treated erythrocytes
Type: cell-based
Conditions: 1h
Experimental: Freshly collected erythrocytes were washed, resuspended to 10% hematocrit in buffer [25mM HEPES (pH 7.4), 120mM NaCl, 5.4mM KCl, 1.8mM CaCl2, and 1mM NaH2PO4], incubated for 1 hour at 37°C, then centrifuged at 2000xg for 5 minutes at 4°C, resuspended in fresh wash buffer to 30-40% hematocrit, and split into 210µL aliquots of packed erythrocytes. […] All samples were incubated at 37°C shaking at 500 RPM. Triplicate samples of supernatants and packed erythrocytes were collected at 0, 0.5, 1, and 6-hour intervals and snap-frozen in liquid N2.
RBC and media samples were extracted at 1:10 and 1:20 dilutions, respectively, in 5:3:2 MeOH : MeCN:H2O v/v/v, and supernatants analyzed on a Thermo Vanquish UHPLC coupled to a Thermo Q Exactive mass spectrometer, as extensively described ([Nemkov et al., 2015]; [Nemkov et al., 2017]). The extraction buffer was supplemented with 40uM 3-^13C lactate to allow absolute quantification of lactate isotopologues, including lactate generated via glycolysis ([1,2,3-^13C3] enriched) vs. the pentose phosphate pathway ([2,3-^13C2] enriched), as described ([Reisz et al., 2016]). Metabolite assignments, peak area integration and isotopologues distributions were determined using Maven (Princeton University) ([Nemkov et al., 2015]; [Nemkov et al., 2017]).
Data were auto-scaled and normalized to zero-hour time points. Metabolites were removed from the dataset if greater than 50% of the samples contained missing values or the relative standard deviation among replicates exceeded 25%. Additionally, data was filtered using the interquartile range to reduce near-constant values from the experiment by 5%.
A principal component analysis of preprocessed data was plotted with the 95% confidence interval minimum volume enclosing ellipsoid for each respective group (MetaboAnalyst, cluster, plotly). A two-way repeated measures analysis of variance (ANOVA) was performed with multiple comparisons corrected for using a false discovery rate p-value cutoff of 0.05. Metabolite-Pathway analysis was performed using the R package of MetaboAnalyst, as previously described ([Xia and Wishart, 2010]). Metabolite-Protein nodal analysis was performed using omicsnet.ca and as previously described ([Zhou and Xia, 2018]).

[1] = treated erythrocytes, one value per replicate sample, polarity +
[2] = treated erythrocytes, one value per replicate sample, polarity -
[3] = treated erythrocytes, replicate samples

## CC(C)(C)C(=O)OCOP(=O)(OCOC(=O)C(C)(C)C)C1CCCN(O)C1=O (stereo not shown) [POMHEX]
Replicate samples
  AMP level (metabolomics signal): 1.96E+06 and 2.60E+06 and 1.22E+06
  ATP level (metabolomics signal): 1.32E+04 and 2.11E+04 and 3.43E+04
  Adenine level (metabolomics signal): 1.75E+05 and 1.63E+05 and 1.61E+05
  Cytosine level (metabolomics signal): 4.76E+05 and 3.43E+05 and 2.67E+05
  L-alanine level (metabolomics signal): 1.12E+07 and 9.08E+06 and 1.05E+07
  L-arginine level (metabolomics signal): 4.18E+06 and 1.19E+07 and 3.04E+06
  L-asparagine level (metabolomics signal): 7.53E+06 and 8.13E+06 and 7.16E+06
  L-aspartate level (metabolomics signal): 2.28E+07 and 2.29E+07 and 1.75E+07
  L-cysteine level (metabolomics signal): 2.57E+05 and 1.28E+06 and 6.21E+05
  L-glutamate level (metabolomics signal): 2.16E+07 and 2.10E+07 and 1.73E+07
  L-glutamine level (metabolomics signal): 6.97E+07 and 8.81E+07 and 6.57E+07
  L-histidine level (metabolomics signal): 1.22E+06 and 1.29E+06 and 1.07E+06
  L-isoleucine level (metabolomics signal): 9.19E+06 and 1.31E+07 and 8.52E+06
  L-leucine level (metabolomics signal): 1.97E+08 and 2.85E+08 and 1.36E+08
  L-lysine level (metabolomics signal): 1.46E+06 and 1.53E+06 and 1.05E+06
  L-methionine level (metabolomics signal): 1.81E+07 and 2.91E+07 and 1.59E+07
  L-phenylalanine level (metabolomics signal): 1.22E+07 and 1.56E+07 and 8.20E+06
  L-proline level (metabolomics signal): 4.14E+07 and 6.25E+07 and 4.63E+07
  L-serine level (metabolomics signal): 6.19E+06 and 5.89E+06 and 5.91E+06
  L-threonine level (metabolomics signal): 7.85E+06 and 8.68E+06 and 7.03E+06
  L-tryptophan level (metabolomics signal): 4.00E+06 and 3.89E+06 and 2.67E+06
  L-tyrosine level (metabolomics signal): 2.39E+07 and 3.62E+07 and 2.21E+07
  L-valine level (metabolomics signal): 1.59E+08 and 1.34E+08 and 1.66E+08
  dCMP level (metabolomics signal): 6.47E+03 and 1.42E+04 and 8.65E+03
  dTMP level (metabolomics signal): 6.95E+05 and 1.44E+06 and 5.66E+05
  glycine level (metabolomics signal): 2.53E+06 and 2.52E+06 and 2.98E+06
[1]
  N-Acyl-D-aspartate (C06380) metabolite signal: 1.39E+05 and 1.05E+05 and 7.72E+04
  Poly-gamma-D-glutamate (C05723) metabolite signal: 4.55E+07 and 6.01E+07 and 4.31E+07
[2]
  D-Ribitol 5-phosphate (C01068) metabolite signal: 1.36E+04 and 3.79E+04 and 1.11E+04
  D-glucono-1,5-lactone (C00198) metabolite signal: 3.37E+05 and 3.01E+05 and 3.48E+05
  L-Noradrenaline (C00547) metabolite signal: 3.29E+04 and 4.04E+04 and 2.83E+04
  Oxalosuccinate (C05379) metabolite signal: 9.85E+04 and 9.72E+04 and 1.00E+05
  Pyridoxamine (C00534) metabolite signal: 1.26E+04 and 1.81E+04 and 8.56E+03
  Thioredoxin disulfide (C00343) metabolite signal: 3.49E+04 and 1.17E+05 and 2.13E+04
[3]
  1-4-beta-D-Xylan (metabolite signal): 1.76E+05 and 2.60E+05 and 1.54E+05
  2-Hydroxyglutarate/Citramalate (C02630) metabolite signal: 4.45E+04 and 4.76E+04 and 4.24E+04
  5-6-Dihydrothymine (C00906) metabolite signal: 2.57E+05 and 3.03E+05 and 1.85E+05
  5-10-Methenyltetrahydrofolate (metabolite signal): 1.81E+05 and 1.74E+05 and 1.10E+05
  5-Hydroxyisourate (C11821) metabolite signal: 4.87E+06 and 2.62E+06 and 4.93E+06
  5-L-Glutamyl-taurine (metabolite signal): 1.73E+05 and 9.38E+04 and 2.11E+05
  5-Oxoproline (metabolite signal): 5.99E+05 and 6.10E+05 and 6.21E+05
  (S)(+)-Allantoin (C02350) metabolite signal: 1.83E+04 and 1.70E+04 and 1.48E+04
  Allantoate (C00499) metabolite signal: 1.28E+05 and 4.06E+05 and 1.02E+05
  Ascorbate (metabolite signal): 6.30E+04 and 1.08E+05 and 4.97E+04
  CMP-N-acetylneuraminate (metabolite signal): 6.05E+03 and 4.63E+03 and 2.62E+03
  Carnosine (metabolite signal): 2.09E+05 and 1.71E+05 and 1.90E+05
  Citrate (C00158) metabolite signal: 1.89E+04 and 2.10E+04 and 1.46E+04
  Creatine (metabolite signal): 2.57E+08 and 2.12E+08 and 2.30E+08
  Creatinine (metabolite signal): 2.38E+06 and 2.51E+06 and 2.49E+06
  Cys-Gly (metabolite signal): 7.57E+05 and 1.20E+06 and 8.09E+05
  D-Glucosamine (metabolite signal): 6.03E+05 and 3.34E+05 and 1.05E+06
  D-Glucose (C00031) metabolite signal: 4.53E+06 and 6.78E+06 and 3.73E+06
  D-Ribose (C00121) metabolite signal: 1.22E+05 and 1.96E+05 and 1.18E+05
  Dehydroascorbate (metabolite signal): 4.03E+04 and 3.78E+04 and 2.56E+04
  Dihydrofolate (metabolite signal): 6.94E+05 and 1.83E+06 and 6.55E+05
  Dimethylglycine (metabolite signal): 1.12E+06 and 8.60E+05 and 1.04E+06
  Diphosphate (C00013) metabolite signal: 1.40E+04 and 3.85E+04 and 1.73E+04
  Fumarate (C00122) metabolite signal: 8.16E+04 and 8.08E+04 and 7.78E+04
  Glutathione (C00051) metabolite signal: 5.06E+07 and 7.77E+07 and 5.74E+07
  Glutathione disulfide (metabolite signal): 7.45E+04 and 7.57E+04 and 5.41E+04
  Hypoxanthine (C00262) metabolite signal: 6.66E+03 and 1.71E+04 and 1.69E+04
  IMP (C00130) metabolite signal: 7.81E+04 and 9.15E+04 and 6.22E+04
  Inosine (C00294) metabolite signal: 6.22E+04 and 5.44E+04 and 6.05E+04
  L-Citrulline (metabolite signal): 5.24E+06 and 4.00E+06 and 4.92E+06
  L-Homoserine (metabolite signal): 1.76E+05 and 2.52E+05 and 1.58E+05
  Lactate (C01432) metabolite signal: 7.95E+06 and 9.12E+06 and 7.54E+06
  Malate (C00149) metabolite signal: 6.76E+04 and 6.17E+04 and 6.25E+04
  Mannitol (C00392) metabolite signal: 1.25E+05 and 1.54E+05 and 1.02E+05
  N-Acetylneuraminate (metabolite signal): 1.98E+04 and 1.32E+04 and 1.62E+04
  N-Glycoloyl-neuraminate (metabolite signal): 7.97E+04 and 1.42E+05 and 5.68E+04
  NAD+ (C00003) metabolite signal: 1.57E+04 and 4.46E+04 and 2.15E+04
  Nicotinamide (C00153) metabolite signal: 4.80E+07 and 5.08E+07 and 4.18E+07
  Ornithine (metabolite signal): 1.57E+06 and 1.30E+06 and 1.16E+06
  Oxaloacetate (C00036) metabolite signal: 3.29E+04 and 5.49E+04 and 3.03E+04
  Phosphoserine (metabolite signal): 0.00E+00 (2×) and 1.77E+04
  Putrescine (metabolite signal): 4.04E+04 and 3.04E+04 and 2.63E+04
  Pyridoxal (C00250) metabolite signal: 5.25E+04 and 8.23E+04 and 7.59E+04
  Pyruvate (C00022) metabolite signal: 5.39E+05 and 7.10E+05 and 4.33E+05
  S-Glutathionyl-L-cysteine (metabolite signal): 5.57E+04 and 6.02E+04 and 1.82E+04
  Sedoheptulose 1-phosphate (C06222) metabolite signal: 2.81E+03 and 3.84E+03 and 2.38E+03
  Spermidine (metabolite signal): 7.32E+06 and 6.78E+06 and 6.25E+06
  Spermine (metabolite signal): 7.58E+06 and 7.10E+06 and 6.92E+06
  Succinate (C00042) metabolite signal: 6.13E+04 and 9.94E+04 and 5.79E+04
  Thymidine (C00214) metabolite signal: 1.12E+04 and 1.26E+04 and 8.73E+03
  UDP (C00015) metabolite signal: 5.07E+04 and 1.42E+05 and 2.88E+04
  UDP-N-acetyl-D-glucosamine (metabolite signal): 2.55E+03 and 3.51E+03 and 2.64E+03
  UDP-glucose (C00029) metabolite signal: 5.62E+03 and 1.08E+04 and 6.04E+03
  Urate (C00366) metabolite signal: 2.31E+04 and 2.80E+04 and 2.12E+04
  Xanthine (C00385) metabolite signal: 1.88E+05 and 1.43E+05 and 1.48E+05
  alpha-D-Glucosamine 1-phosphate (metabolite signal): 8.86E+05 and 4.48E+05 and 1.21E+06
  alpha-D-Ribose 1-phosphate (C00620) metabolite signal: 2.29E+04 and 4.78E+04 and 2.91E+04
  gamma-Glutamyl-gamma-aminobutyrate (metabolite signal): 9.00E+04 and 5.89E+04 and 7.26E+04
  gamma-L-Glutamyl-D-alanine (metabolite signal): 1.81E+04 and 1.74E+04 and 1.70E+04
  gamma-L-Glutamyl-L-cysteine (metabolite signal): 1.43E+04 and 3.68E+04 and 6.67E+03
